Calls of active or inactive are those of the source.
Columns and labels:
[1] = MITF Orthogonal Assay: SK-MEL-5 CTG Assay Measured in Cell-Based System Using Plate Reader - 2084-02_Inhibitor_Dose_DryPowder_Activity_Set5.; assay type: functional
[2] = MITF Orthogonal Assay: MALME3 CTG Assay Measured in Cell-Based System Using Plate Reader - 2084-04_Inhibitor_Dose_DryPowder_Activity_Set6.; assay type: functional; settings: MALME-3
[3] = viability loss in MITF-independent A375 cells – cell-based, CellTiter-Glo luminescence, dry powder, set 6, counter-screen for MITF inhibitor project, dose response (AID 624488); assay type: functional; settings: A-375
[4] = viability loss in MITF-independent A375 cells – cell-based, CellTiter-Glo luminescence, dry powder, set 7, counter-screen for MITF inhibitor project, dose response (AID 624490); assay type: functional; settings: A-375
[5] = viability loss in MITF-independent A375 cells – cell-based, CellTiter-Glo luminescence, dry powder, set 2, counter-screen for MITF inhibitor project, dose response (AID 624489); assay type: functional; settings: A-375;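 note: actives are compounds lowering A375 viability meaning general cytotoxicity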
[6] = cytotoxicity in MITF-independent A375 cells – cell-based, CellTiter-Glo luminescence, dry powder, set 4, counter-screen for MITF inhibitor project, dose response (AID 624364); assay type: functional; settings: A-375;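 note: A375 melanoma cells are MITF independent so this is a counter screen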
[7] = MITF Measured in Cell-Based System Using Plate Reader - 2084-01_Inhibitor_Dose_DryPowder_Activity_Set7.; assay type: functional
[8] = MITF Measured in Cell-Based System Using Plate Reader - 2084-01_Inhibitor_Dose_DryPowder_Activity_Set6.; assay type: functional
[9] = inhibitors of TRPM1-promoter reporter in SK-MEL-5 – cell-based, luciferase, dry powder, set 9, MITF inhibitor project, dose response (AID 651588); assay type: functional
[10] = cytotoxicity in MITF-independent A375 cells – cell-based, CellTiter-Glo luminescence, dry powder, set 9, counter-screen for MITF modulator project, dose response (AID 651591); assay type: functional; settings: A-375
[11] = cytotoxicity in melanoma parental cells – cell-based, CellTiter-Glo, dry powder, set 6, MITF inhibitor project, dose response (AID 624429); assay type: functional; settings: SK-MEL-5
[12] = growth inhibition of SK-MEL-5 melanoma cells – cell-based, CellTiter-Glo luminescence, dry powder, set 8, orthogonal assay for MITF inhibitor project, dose response (AID 651586); assay type: functional
[13] = growth inhibition of MALME3 cells – cell-based, CellTiter-Glo luminescence, dry powder, set 5, orthogonal assay for MITF inhibitor project, dose response (AID 651584); assay type: functional; settings: MALME-3
[14] = viability loss in Vero cells – cytotoxicity control for Vif-APOBEC3G degradation inhibitor project, dose response (AID 1117358); assay type: functional; settings: Vero
[15] = target: T1, Methionyl-tRNA synthetase, putative (Trypanosoma brucei brucei, UniProt Q38C91); assay type: functional, Trypanosoma brucei brucei strain 927/4 GUTat10.1
T1 sequence (Q38C91 whole entry): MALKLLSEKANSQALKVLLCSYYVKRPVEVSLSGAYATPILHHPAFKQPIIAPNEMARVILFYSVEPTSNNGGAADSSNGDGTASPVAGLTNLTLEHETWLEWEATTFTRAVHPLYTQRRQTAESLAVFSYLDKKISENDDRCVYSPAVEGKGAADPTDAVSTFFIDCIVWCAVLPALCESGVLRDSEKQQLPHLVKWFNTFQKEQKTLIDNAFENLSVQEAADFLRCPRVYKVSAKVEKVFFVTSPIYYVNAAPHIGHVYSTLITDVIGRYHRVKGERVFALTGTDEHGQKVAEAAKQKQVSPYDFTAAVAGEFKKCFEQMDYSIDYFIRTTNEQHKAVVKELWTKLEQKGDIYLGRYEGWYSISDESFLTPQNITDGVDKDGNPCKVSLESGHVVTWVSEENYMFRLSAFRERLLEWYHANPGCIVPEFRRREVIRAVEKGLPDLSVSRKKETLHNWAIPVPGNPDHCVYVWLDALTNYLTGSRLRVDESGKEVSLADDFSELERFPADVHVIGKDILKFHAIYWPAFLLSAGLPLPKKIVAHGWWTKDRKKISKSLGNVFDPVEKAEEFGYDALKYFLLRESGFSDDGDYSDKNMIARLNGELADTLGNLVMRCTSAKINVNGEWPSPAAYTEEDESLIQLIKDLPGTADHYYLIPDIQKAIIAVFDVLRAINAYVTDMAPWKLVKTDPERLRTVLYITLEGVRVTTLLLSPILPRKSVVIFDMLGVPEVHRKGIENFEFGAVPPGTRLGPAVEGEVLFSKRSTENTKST

[16] = Counterscreen for inhibitors of Trypanosoma brucei methionyl tRNA synthetase (MetRS): Luminescence-based cell-based high throughput dose response assay to identify compounds that are cytotoxic to Jurkat human T lymphocyte cells.; assay type: functional
[17] = target: T2, Alkaline phosphatase, tissue-nonspecific isozyme (Homo sapiens, UniProt P05186); experiment: TNAP enzyme inhibition by screening hits, dose response, selectivity assay for mouse IAP inhibitor project, biochemical, human TNAP, uHTS hits (AID 488906); assay type: functional
T2 sequence (P05186 whole entry): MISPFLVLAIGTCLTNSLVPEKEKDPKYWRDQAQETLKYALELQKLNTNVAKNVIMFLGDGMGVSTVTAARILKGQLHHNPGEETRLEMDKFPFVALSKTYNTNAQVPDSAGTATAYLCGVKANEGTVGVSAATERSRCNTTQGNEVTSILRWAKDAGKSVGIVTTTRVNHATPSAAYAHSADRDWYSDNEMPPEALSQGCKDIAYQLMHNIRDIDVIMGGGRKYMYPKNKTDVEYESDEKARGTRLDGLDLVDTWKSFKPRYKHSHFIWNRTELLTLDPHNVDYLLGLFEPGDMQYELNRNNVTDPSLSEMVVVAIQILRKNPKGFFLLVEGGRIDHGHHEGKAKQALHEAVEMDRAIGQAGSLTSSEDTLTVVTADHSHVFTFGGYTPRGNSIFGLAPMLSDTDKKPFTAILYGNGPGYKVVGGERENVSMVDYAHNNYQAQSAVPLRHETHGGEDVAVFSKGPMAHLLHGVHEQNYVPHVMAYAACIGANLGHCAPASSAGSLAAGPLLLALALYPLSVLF

[18] = target: Intestinal-type alkaline phosphatase (Mus musculus, UniProt P24822); experiment: PubChem AID 488785; assay type: functional
[19] = potency of ADAM10 substrate cleavage blockers – biochemical, QFRET, dose response (AID 743254);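 note: ADAM10 enzyme with the DM2 quenched FRET peptide as substrate; EDANS fluorescence gain as the protease cuts the substrate; inhibitor potency against ADAM10 proteolytic activity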
[20] = target: Intestinal-type alkaline phosphatase (Homo sapiens, UniProt P09923); experiment: inhibition of human intestinal alkaline phosphatase – biochemical, dose response (AID 488876); assay type: functional
[21] = target: T1, Methionyl-tRNA synthetase, putative; assay type: functional, Trypanosoma brucei brucei strain 927/4 GUTat10.1; remark: listed apart in the source
[22] = target: Disintegrin and metalloproteinase domain-containing protein 17 (Homo sapiens, UniProt P78536); experiment: inhibition of ADAM17 substrate cleavage – biochemical, quenched FRET substrate, counter-screen for ADAM10 exosite inhibitor project, dose response (AID 743253)
[23] = target: Glutathione-S-transferase (Schistosoma japonicum, UniProt Q26513); experiment: GST-antibody interaction or FRET quenching – biochemical, TR-FRET, artefact control for Vif-APOBEC3G degradation inhibitor project, dose response (AID 1117362); assay type: functional
[24] = target: Beta-adrenergic receptor kinase 1 (Homo sapiens, UniProt P25098); experiment: aptamer displacement from bead-bound GRK2 – biochemical, cherry pick 1, bead flow cytometry, dose response (AID 504500)
[25] = Dd2 parasite growth inhibition in erythrocytes – SYBR Green, dry powder samples, set 9, dose response (AID 1159568); assay type: functional, cell-based
[26] = target: NAD-dependent protein deacylase sirtuin-5, mitochondrial (Homo sapiens, UniProt Q9NXA8); experiment: sirtuin-5 deacylation blockers, concentration series – biochemical, fluorescence imaging, cherry-pick, set 5, dose response (AID 720591);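 note: desuccinylation of succinyl peptide AMC substrate read as fluorescence after trypsin release; potency of inhibitors that lower fluorescence and may act on trypsin instead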
NAD-dependent protein deacylase sirtuin-5, mitochondrial, sequence (Q9NXA8 whole entry): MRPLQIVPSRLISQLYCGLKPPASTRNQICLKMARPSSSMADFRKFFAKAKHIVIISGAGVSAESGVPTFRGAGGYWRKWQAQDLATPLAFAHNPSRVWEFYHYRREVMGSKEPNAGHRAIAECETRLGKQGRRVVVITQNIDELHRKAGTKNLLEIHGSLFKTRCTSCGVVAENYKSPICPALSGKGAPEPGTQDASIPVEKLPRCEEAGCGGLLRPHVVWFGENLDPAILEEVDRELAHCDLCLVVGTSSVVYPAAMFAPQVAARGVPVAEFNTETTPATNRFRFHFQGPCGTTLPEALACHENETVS

Intestinal-type alkaline phosphatase (Mus musculus, UniProt P24822), sequence (P24822 whole entry): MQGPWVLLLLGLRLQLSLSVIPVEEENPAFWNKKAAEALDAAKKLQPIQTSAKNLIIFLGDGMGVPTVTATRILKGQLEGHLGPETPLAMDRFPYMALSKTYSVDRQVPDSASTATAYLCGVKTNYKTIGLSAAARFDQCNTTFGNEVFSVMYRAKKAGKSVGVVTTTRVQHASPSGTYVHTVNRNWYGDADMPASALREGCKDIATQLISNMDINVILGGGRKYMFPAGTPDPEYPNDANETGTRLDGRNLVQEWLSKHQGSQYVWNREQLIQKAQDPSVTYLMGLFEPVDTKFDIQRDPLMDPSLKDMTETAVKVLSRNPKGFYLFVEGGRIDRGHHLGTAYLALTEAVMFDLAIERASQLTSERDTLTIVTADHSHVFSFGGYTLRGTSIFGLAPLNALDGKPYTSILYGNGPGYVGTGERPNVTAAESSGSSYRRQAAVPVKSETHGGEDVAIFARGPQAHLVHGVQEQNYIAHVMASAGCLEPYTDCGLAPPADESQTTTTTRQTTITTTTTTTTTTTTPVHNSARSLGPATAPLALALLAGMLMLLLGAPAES
Beta-adrenergic receptor kinase 1, sequence (P25098 whole entry): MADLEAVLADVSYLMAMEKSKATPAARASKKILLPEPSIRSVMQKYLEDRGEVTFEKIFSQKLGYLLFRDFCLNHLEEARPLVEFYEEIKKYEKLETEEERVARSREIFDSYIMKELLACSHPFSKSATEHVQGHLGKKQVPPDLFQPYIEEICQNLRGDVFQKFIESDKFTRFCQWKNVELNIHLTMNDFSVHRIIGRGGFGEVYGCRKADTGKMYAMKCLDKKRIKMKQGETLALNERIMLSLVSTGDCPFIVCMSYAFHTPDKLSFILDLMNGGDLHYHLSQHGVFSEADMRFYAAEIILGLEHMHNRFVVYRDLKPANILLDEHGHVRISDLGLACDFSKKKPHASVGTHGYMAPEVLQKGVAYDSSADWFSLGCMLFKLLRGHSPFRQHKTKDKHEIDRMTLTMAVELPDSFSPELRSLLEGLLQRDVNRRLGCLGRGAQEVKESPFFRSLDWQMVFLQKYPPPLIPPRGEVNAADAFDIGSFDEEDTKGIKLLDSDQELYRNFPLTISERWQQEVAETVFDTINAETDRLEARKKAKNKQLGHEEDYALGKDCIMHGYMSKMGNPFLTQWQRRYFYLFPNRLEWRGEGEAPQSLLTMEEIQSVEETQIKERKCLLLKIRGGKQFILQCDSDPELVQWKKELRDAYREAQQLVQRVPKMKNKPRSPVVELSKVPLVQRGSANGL
Glutathione-S-transferase, sequence (Q26513 whole entry): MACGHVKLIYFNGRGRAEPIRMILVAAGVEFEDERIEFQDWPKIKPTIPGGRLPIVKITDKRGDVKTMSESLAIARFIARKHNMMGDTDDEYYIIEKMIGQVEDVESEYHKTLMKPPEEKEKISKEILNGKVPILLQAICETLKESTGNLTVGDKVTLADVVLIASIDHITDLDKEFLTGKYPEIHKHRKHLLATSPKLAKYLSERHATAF
Intestinal-type alkaline phosphatase (Homo sapiens, UniProt P09923), sequence (P09923 whole entry): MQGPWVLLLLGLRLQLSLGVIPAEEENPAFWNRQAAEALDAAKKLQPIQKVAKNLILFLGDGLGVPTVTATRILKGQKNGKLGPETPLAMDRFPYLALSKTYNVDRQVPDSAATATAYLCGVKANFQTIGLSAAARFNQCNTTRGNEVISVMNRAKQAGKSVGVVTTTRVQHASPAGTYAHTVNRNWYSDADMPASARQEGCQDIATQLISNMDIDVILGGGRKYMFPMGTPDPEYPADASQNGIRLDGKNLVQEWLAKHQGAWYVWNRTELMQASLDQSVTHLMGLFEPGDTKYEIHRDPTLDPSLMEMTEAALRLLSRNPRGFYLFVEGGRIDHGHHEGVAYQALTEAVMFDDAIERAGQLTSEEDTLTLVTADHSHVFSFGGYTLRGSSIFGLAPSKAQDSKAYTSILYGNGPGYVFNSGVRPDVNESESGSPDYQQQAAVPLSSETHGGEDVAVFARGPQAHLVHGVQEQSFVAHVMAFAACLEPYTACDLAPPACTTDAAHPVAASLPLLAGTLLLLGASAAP
Disintegrin and metalloproteinase domain-containing protein 17, sequence (P78536 whole entry, the tested form may be a part): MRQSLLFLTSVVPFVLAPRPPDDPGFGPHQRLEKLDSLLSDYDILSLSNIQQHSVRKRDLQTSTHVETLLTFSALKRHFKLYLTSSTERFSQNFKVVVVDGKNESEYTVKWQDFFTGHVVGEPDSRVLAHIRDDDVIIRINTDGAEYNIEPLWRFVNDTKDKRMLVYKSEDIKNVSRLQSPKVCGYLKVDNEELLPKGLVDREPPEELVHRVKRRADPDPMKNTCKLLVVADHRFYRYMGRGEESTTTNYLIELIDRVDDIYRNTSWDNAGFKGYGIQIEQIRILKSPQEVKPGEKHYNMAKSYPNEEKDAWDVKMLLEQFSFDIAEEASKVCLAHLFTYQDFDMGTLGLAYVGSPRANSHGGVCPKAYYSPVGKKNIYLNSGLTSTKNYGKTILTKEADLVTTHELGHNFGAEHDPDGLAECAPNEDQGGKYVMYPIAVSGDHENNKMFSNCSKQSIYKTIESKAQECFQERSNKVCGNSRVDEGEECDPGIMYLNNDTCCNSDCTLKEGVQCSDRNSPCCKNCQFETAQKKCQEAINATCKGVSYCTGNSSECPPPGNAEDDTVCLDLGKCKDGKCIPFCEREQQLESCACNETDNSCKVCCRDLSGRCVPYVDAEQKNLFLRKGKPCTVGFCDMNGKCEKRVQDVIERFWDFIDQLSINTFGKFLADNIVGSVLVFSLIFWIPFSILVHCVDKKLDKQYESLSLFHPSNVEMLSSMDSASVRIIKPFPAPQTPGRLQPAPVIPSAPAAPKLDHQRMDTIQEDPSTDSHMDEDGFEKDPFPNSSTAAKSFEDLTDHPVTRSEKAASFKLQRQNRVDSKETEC

Structure (SMILES): CCN1CCN(C2=C(NC(=O)c3ccccc3)C(=O)c3ccccc3C2=O)CC1
- AC50 [1]: 6.95 µM (active)
- AC50 [2]: 5.64 µM (active)
- AC50 [3]: 15.8 µM (active)
- AC50 [4]: 10.1 µM (active)
- AC50 [5]: 11.2 µM (active)
- AC50 [6]: 26.7 µM (active)
- AC50 [7]: 0.729 µM (active)
- AC50 [8]: 0.523 µM (active)
- AC50 [9]: 1.72 µM (active)
- AC50 [10]: 27.3 µM (active)
- AC50 [11]: 9.53 µM (active)
- AC50 [12]: 9.73 µM (active)
- AC50 [13]: 5.64 µM (active)

Structure (SMILES): O=C(NCCc1ccc(Cl)cc1)C1CCN(C(=O)c2sccc2-n2cccc2)CC1
- CC50 [14]: > 40 µM (active)

Structure (SMILES): CCc1cc(Cn2nc(-c3ccccc3)cc2C(=O)NCc2cccc(Br)c2)on1
- IC50 [15]: 1.66 µM (active)
- IC50 [16]: 83.3 µM (inactive)
- IC50 [17]: 54.9 µM (active)
- IC50 [18]: 12.9 µM (active)
- IC50 [19]: > 69.5 µM (inactive)
- IC50 [20]: > 100 µM (inactive)
- IC50 [21]: 2.93 µM (active)
- IC50 [22]: > 69.5 µM (inactive)

Structure (SMILES): C=C(C)C(=O)Nc1cccc(C2=NOC3(C2)C[C@@H](C(N)=O)N(C(=O)c2cc([N+](=O)[O-])cc([N+](=O)[O-])c2)C3)c1 (stereo partly specified)
- IC50 [23]: > 100 µM (active)
- EC50 [24]: 10.6 µM (inactive)

Structure (SMILES): COc1ccc2c3c([nH]c2c1)[C@H](CO)N(Cc1ccccc1)CC31CN(C(=O)c2ccccn2)C1
- AC50 [25]: 6.79 µM (active)

Structure (SMILES): CCOC(=O)c1cnc(-n2nc(C)cc2C)nc1Oc1ccccc1F
- AC50 [26]: > 30 µM (inactive)
